From US6630326B2, “Cancer diagnosis and therapy based on mutations in TGF-β receptors” (Case Western Reserve University, priority 1995, dated 2003) come the findings set out here.

Entries after “also recorded” stand apart in the source; their conditions may differ.

Assay [1] relates to RII expression in MCF-7, ZR-75, and T-47D. Briefly: RNase protection assay for RII transcript after 5-Azacytidine treatment. The format is cell-based, human. The note with it: ER+ breast cancer cell lines MCF-7, ZR-75, T-47D; 2.5-5.0 μM 5-Azacytidine; after 8 days. An excerpt:
A preferred method for detecting loss of mRNA is based on RNase protection. Details of this assay have been published in Sun, et al. Briefly the RNase protection assay measures the amount of RII mRNA in a sample by measuring the amount of RNA which binds to a radioactive antisense RII RNA probe. The radioactive antisense RII RNA probe is produced in a test tube, for example from a plasmid which carries 264 bp for RII cDNA (NarI-PstI) cloned downstream of a T3 RNA polymerase site from which the RNA can be transcribed. Usually, a control human probe such as γ-actin RNA is also prepared from a similar plasmid. The probes are hybridized overnight at room temperature in a guanidine buffer with RNA extracted from tumor cells. The next morning probe RNA which is not protected by binding to authentic RII transcript is destroyed by digestion with RNase A+T1. Protected probe RNA is separated from the reaction by electrophoresis on a urea-acrylamide gel and visualized by autoradiography.
Expression of RI and RII transcripts was examined in 38 human colon tumor cell lines using a ribonuclease (RNase) protection assay as described above (see also Sun, et al., 1994). Total RNA (40 μg) from each sample was hybridized overnight in a single reaction to probes for RI, RII and human γ-actin. […]

Assay [2] relates to RII protein expression in MCF-7, ZR-75, and T-47D. Briefly: 125I-TGFβ cross-link assay for cell surface RII protein after 5-Azacytidine treatment. The format is cell-based, human. To be noted: MCF-7, ZR-75, T-47D; 2.5-5.0 μM 5-Azacytidine; after 8 days. An excerpt:
A preferred method of detecting the presence of functional RII is by TGFβ binding assay in which labelled TGFβ binds to RII followed by cross-linking and measurement of the amount of label linked to RII protein. Details of this assay have been published in Sun, et al., incorporated herein by reference. Briefly, cell surface receptors may be detected by cross-linking in situ to ^125I labelled TGFβ followed by separation on SDS-PAGE and visualization by autoradiography as described in Example 3 below.
To assay for expression of cell surface TGFβ receptors, we performed cross-linking experiments with ^125I-labeled TGFβ. Cell surface TGFβ receptors were labeled by cross-linking to ^125I-labeled human TGFβ1 as described in Sun, L., et al., 1994 (J. Biol. Chem., 269:26449). Labeled receptors were resolved by SDS-polyacrylamide gel electrophoresis and visualized by autoradiography. There was no detectable ^125I-TGFβ binding to any of eight tested RER^+ cell lines with reduced amounts of RII transcript (FIG. 3). The absence of RI surface receptors in these lines (FIG. 3) is consistent with previous reports that RII receptor is required for TGFβ binding to RI (Wrana, J., et al., 1992, Cell, 71:1003; Sun, L., et al., 1994, J. Biol. Chem., 269:26449). […]

The subject of assay [3] is colon cells with intact TGFβ receptors. Briefly: TGFβ-induced cell death in colon cells. The note with it: colon cells with intact TGFβ receptors exposed to TGFβ. The format is cell-based. An excerpt:
Thus, therapeutic effects of restoring an active RII in colon cancer cells will include restoring normal cell death pathways. RII gene therapy is thus useful in combination with and to sensitize cells to conventional cytotoxic radiation or chemotherapy.

On to `Nc1ncn([C@@H]2O[C@H](CO)[C@@H](O)[C@H]2O)c(=O)n1` [5-Azacytidine], for which, in assay [1], the “RII expression (RNase protection assay)” value is given as “restored RII expression; also recorded: RII expression by the treated cells was demonstrated”. For the same compound, the “RII protein expression (125I-TGFβ cross-link)” value in assay [2] is recorded as “RII protein expression was confirmed”. For the compound “TGFβ: transforming growth factor beta, natural inhibitor of growth of human epithelial cells”, the “induction of cell death (apoptosis)” value in assay [3] is listed as “induce cell death”.
